Data reported in patent US20110130380A1, “Heteroaryl Kinase Inhibitors” (priority 2009, published 2011).

biological target: Cdk9/cyclinT1 (Homo sapiens, UniProt P50750); test: Cdk9/cyclinT1 IMAP Protocol (fluorescence polarization kinase assay); settings: Cdk9_cyclinT1_IC50, Table V; generated using one of the two Cdk9/cyclinT1 assays (IMAP or Alpha Screen), not stated which; ATP 6 uM
Sequence (P50750 whole entry): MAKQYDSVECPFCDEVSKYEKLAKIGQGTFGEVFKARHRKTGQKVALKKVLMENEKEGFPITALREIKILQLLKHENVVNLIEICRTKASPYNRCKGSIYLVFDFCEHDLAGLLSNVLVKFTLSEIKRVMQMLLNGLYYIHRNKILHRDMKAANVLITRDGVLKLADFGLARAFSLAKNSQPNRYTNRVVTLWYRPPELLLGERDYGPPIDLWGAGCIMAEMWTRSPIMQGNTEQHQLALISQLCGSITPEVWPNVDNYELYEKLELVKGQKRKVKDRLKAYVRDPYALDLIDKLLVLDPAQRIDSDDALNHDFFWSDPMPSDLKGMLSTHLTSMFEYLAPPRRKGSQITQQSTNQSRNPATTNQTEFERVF
Sequence (O60563 whole entry partner): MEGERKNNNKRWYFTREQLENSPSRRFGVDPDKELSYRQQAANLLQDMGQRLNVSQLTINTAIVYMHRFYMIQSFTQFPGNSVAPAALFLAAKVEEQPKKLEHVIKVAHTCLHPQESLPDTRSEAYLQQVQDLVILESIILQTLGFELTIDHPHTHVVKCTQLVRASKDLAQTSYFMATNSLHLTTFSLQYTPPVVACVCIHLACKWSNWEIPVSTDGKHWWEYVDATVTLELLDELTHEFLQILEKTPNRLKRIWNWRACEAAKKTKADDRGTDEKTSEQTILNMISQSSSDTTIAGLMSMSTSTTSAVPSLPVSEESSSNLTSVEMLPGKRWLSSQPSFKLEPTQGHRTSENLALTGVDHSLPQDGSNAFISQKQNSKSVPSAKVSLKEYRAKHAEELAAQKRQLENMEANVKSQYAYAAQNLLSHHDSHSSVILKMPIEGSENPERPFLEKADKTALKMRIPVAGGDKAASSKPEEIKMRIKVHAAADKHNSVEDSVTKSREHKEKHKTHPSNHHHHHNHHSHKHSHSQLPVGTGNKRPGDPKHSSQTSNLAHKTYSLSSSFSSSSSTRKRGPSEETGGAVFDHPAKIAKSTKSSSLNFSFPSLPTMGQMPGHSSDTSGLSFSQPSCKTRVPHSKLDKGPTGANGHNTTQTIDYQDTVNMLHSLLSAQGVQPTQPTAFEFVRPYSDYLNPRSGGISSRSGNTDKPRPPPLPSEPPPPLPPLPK

| SMILES | IC50 |
| --- | --- |
| C[C@@H]1CNC[C@H](C(=O)Nc2cc(-c3cccc(NCC4CCOCC4)n3)c(Cl)cn2)C1 (single isomer, unassigned) [Example 128] | 1 nM |
| C[C@H]1CNC[C@@H](C(=O)Nc2cc(-c3cccc(NCC4CCOCC4)n3)c(Cl)cn2)C1 (single isomer, unassigned) [Example 129] | 13 nM |
| CC1(C)C[C@H](CNc2cccc(-c3cc(NC(=O)[C@H]4CNCCO4)ncc3Cl)n2)CCO1 (single isomer, unassigned) [Example 130] | < 8 nM |
| CC1(C)C[C@@H](CNc2cccc(-c3cc(NC(=O)[C@H]4CNCCO4)ncc3Cl)n2)CCO1 (single isomer, unassigned) [Example 131] | 38 nM |
| C[C@H]1CC[C@@H](C(=O)Nc2cc(-c3cccc(NCC4CCOCC4)n3)c(Cl)cn2)CN1 (single isomer, unassigned) [Example 141] | < 8 nM |
| C[C@@H]1CC[C@H](C(=O)Nc2cc(-c3cccc(NCC4CCOCC4)n3)c(Cl)cn2)CN1 (single isomer, unassigned) [Example 142] | 151 nM |
| C[C@@H]1CC[C@@H](C(=O)Nc2cc(-c3cccc(NCC4CCOCC4)n3)c(Cl)cn2)CN1 (single isomer, unassigned) [Example 146] | 1 nM |
| C[C@H]1CC[C@H](C(=O)Nc2cc(-c3cccc(NCC4CCOCC4)n3)c(Cl)cn2)CN1 (single isomer, unassigned) [Example 147] | 5 nM |
| CC1(C)C[C@@H](CNc2ccc(Cl)c(-c3cc(NC(=O)[C@H]4CNCCO4)ncc3Cl)n2)CCO1 (single isomer, unassigned) [Example 155] | 1 nM |
| CC1(C)C[C@H](CNc2ccc(Cl)c(-c3cc(NC(=O)[C@H]4CNCCO4)ncc3Cl)n2)CCO1 (single isomer, unassigned) [Example 156] | 4 nM |
| O=C(Nc1cc(-c2cccc(NCC3CCOCC3)n2)c(Cl)cn1)[C@H]1CNC[C@H](C(F)(F)F)C1 (single isomer, unassigned) [Example 162] | 10 nM |
| O=C(Nc1cc(-c2cccc(NCC3CCOCC3)n2)c(Cl)cn1)[C@@H]1CNC[C@@H](C(F)(F)F)C1 (single isomer, unassigned) [Example 163] | 129 nM |
| CC(C)S(=O)(=O)N1CCC[C@H](C(=O)Nc2cc(-c3nc(NC[C@@H]4CCOC(C)(C)C4)ccc3Cl)c(Cl)cn2)C1 (single isomer, unassigned) [Example 172] | 1 nM |
| CC(C)S(=O)(=O)N1CCC[C@H](C(=O)Nc2cc(-c3nc(NC[C@H]4CCOC(C)(C)C4)ccc3Cl)c(Cl)cn2)C1 (single isomer, unassigned) [Example 173] | 1 nM |
| COC(=O)N1CCC[C@H](C(=O)Nc2cc(-c3nc(NC[C@@H]4CCOC(C)(C)C4)ccc3Cl)c(Cl)cn2)C1 (single isomer, unassigned) [Example 174] | 1 nM |
| COC(=O)N1CCC[C@H](C(=O)Nc2cc(-c3nc(NC[C@H]4CCOC(C)(C)C4)ccc3Cl)c(Cl)cn2)C1 (single isomer, unassigned) [Example 175] | 2 nM |
| O=C(Nc1cc(-c2cccc(NCC3CCOCC3)n2)c(Cl)cn1)[C@H]1CNC[C@@H](C(F)(F)F)C1 (single isomer, unassigned) [Example 182] | 4 nM |
| O=C(Nc1cc(-c2cccc(NCC3CCOCC3)n2)c(Cl)cn1)[C@@H]1CNC[C@H](C(F)(F)F)C1 (single isomer, unassigned) [Example 183] | 55 nM |
| C[C@@H]1CC[C@@H](C(=O)Nc2cc(-c3ccc(F)c(NCC4CCOCC4)n3)c(Cl)cn2)CN1 (single isomer, unassigned) [Example 189] | 1 nM |
| C[C@H]1CC[C@H](C(=O)Nc2cc(-c3ccc(F)c(NCC4CCOCC4)n3)c(Cl)cn2)CN1 (single isomer, unassigned) [Example 190] | 3 nM |
| C[C@@H]1CC[C@@H](C(=O)Nc2cc(-c3ccc(F)c(NCC4CCOCC4)n3)c(Cl)cn2)CN1C (single isomer, unassigned) [Example 196] | 17 nM |
| C[C@H]1CC[C@H](C(=O)Nc2cc(-c3ccc(F)c(NCC4CCOCC4)n3)c(Cl)cn2)CN1C (single isomer, unassigned) [Example 197] | 4 nM |
| CO[C@@H]1CNC[C@H](C(=O)Nc2cc(-c3cccc(NCC4CCOCC4)n3)c(Cl)cn2)C1 (single isomer, unassigned) [Example 211] | 2 nM |
| CO[C@H]1CNC[C@@H](C(=O)Nc2cc(-c3cccc(NCC4CCOCC4)n3)c(Cl)cn2)C1 (single isomer, unassigned) [Example 212] | 171 nM |
| O=C(Nc1cc(-c2nc(NCC3CCOCC3)ccc2Cl)c(Cl)cn1)C1CNCCOC1 (single isomer, unassigned) [Example 213] | 2 nM |
| O=C(Nc1cc(-c2nc(NCC3CCOCC3)ccc2Cl)c(Cl)cn1)C1CNCCOC1 (single isomer, unassigned) [Example 214] | 1 nM |

| SMILES | IC50 |
| --- | --- |
| CC1(C)C[C@H](CNc2nc(-c3cc(NC(=O)[C@@H]4CCCNC4)ncc3Cl)ccc2F)CCO1 (single isomer, unassigned) [Example 215] | 1 nM |
| CC1(C)C[C@@H](CNc2nc(-c3cc(NC(=O)[C@@H]4CCCNC4)ncc3Cl)ccc2F)CCO1 (single isomer, unassigned) [Example 216] | 1 nM |
| O=C(Nc1cc(-c2nc(NCC3CCOCC3)ccc2F)c(Cl)cn1)C1CNCCOC1 (single isomer, unassigned) [Example 222] | 25 nM |
| O=C(Nc1cc(-c2nc(NCC3CCOCC3)ccc2F)c(Cl)cn1)C1CNCCOC1 (single isomer, unassigned) [Example 223] | 4 nM |
| CC1(C)CO[C@@H](CNc2cccc(-c3cc(NC(=O)[C@@H]4CCCNC4)ncc3Cl)n2)CO1 (single isomer, unassigned) [Example 231] | 1 nM |
| CC1(C)CO[C@H](CNc2cccc(-c3cc(NC(=O)[C@@H]4CCCNC4)ncc3Cl)n2)CO1 (single isomer, unassigned) [Example 232] | 1 nM |
| CC1(C)COC[C@@H](CNc2cccc(-c3cc(NC(=O)[C@@H]4CCCNC4)ncc3Cl)n2)O1 (single isomer, unassigned) [Example 233] | 1 nM |
| CC1(C)COC[C@H](CNc2cccc(-c3cc(NC(=O)[C@@H]4CCCNC4)ncc3Cl)n2)O1 (single isomer, unassigned) [Example 234] | 3 nM |
| COC[C@@H]1CC[C@@H](C(=O)Nc2cc(-c3cccc(NCC4CCOCC4)n3)c(Cl)cn2)CN1 (single isomer, unassigned) [Example 235] | 2 nM |
| COC[C@H]1CC[C@H](C(=O)Nc2cc(-c3cccc(NCC4CCOCC4)n3)c(Cl)cn2)CN1 (single isomer, unassigned) [Example 236] | 7 nM |
| CC[C@@H]1CC[C@@H](C(=O)Nc2cc(-c3cccc(NCC4CCOCC4)n3)c(Cl)cn2)CN1 (single isomer, unassigned) [Example 240] | 1 nM |
| CC[C@H]1CC[C@H](C(=O)Nc2cc(-c3cccc(NCC4CCOCC4)n3)c(Cl)cn2)CN1 (single isomer, unassigned) [Example 241] | 9 nM |
| C[C@@H]1CC[C@@H](C(=O)Nc2cc(-c3cccc(NC[C@@H]4CCOC(C)(C)C4)n3)c(Cl)cn2)CN1 (single isomer, unassigned) [Example 242] | 1 nM |
| C[C@H]1CC[C@H](C(=O)Nc2cc(-c3cccc(NC[C@@H]4CCOC(C)(C)C4)n3)c(Cl)cn2)CN1 (single isomer, unassigned) [Example 243] | 2 nM |
| C[C@@H]1CC[C@@H](C(=O)Nc2cc(-c3cccc(NC[C@H]4CCOC(C)(C)C4)n3)c(Cl)cn2)CN1 (single isomer, unassigned) [Example 244] | 1 nM |
| C[C@H]1CC[C@H](C(=O)Nc2cc(-c3cccc(NC[C@H]4CCOC(C)(C)C4)n3)c(Cl)cn2)CN1 (single isomer, unassigned) [Example 245] | 6 nM |
| CC[C@@H]1CC[C@@H](C(=O)Nc2cc(-c3ccc(F)c(NCC4CCOCC4)n3)c(Cl)cn2)CN1 (single isomer, unassigned) [Example 256] | 1 nM |
| CC[C@H]1CC[C@H](C(=O)Nc2cc(-c3ccc(F)c(NCC4CCOCC4)n3)c(Cl)cn2)CN1 (single isomer, unassigned) [Example 257] | 5 nM |
| CC1(C)COC[C@H](CNc2nc(-c3cc(NC(=O)[C@@H]4CCCNC4)ncc3Cl)ccc2F)O1 (single isomer, unassigned) [Example 262] | 3 nM |
| CC1(C)COC[C@@H](CNc2nc(-c3cc(NC(=O)[C@@H]4CCCNC4)ncc3Cl)ccc2F)O1 (single isomer, unassigned) [Example 263] | 1 nM |
| CC1(C)CO[C@@H](CNc2nc(-c3cc(NC(=O)[C@@H]4CCCNC4)ncc3Cl)ccc2F)CO1 (single isomer, unassigned) [Example 264] | 1 nM |
| CC1(C)CO[C@H](CNc2nc(-c3cc(NC(=O)[C@@H]4CCCNC4)ncc3Cl)ccc2F)CO1 (single isomer, unassigned) [Example 265] | 1 nM |
| O=C(Nc1cc(-c2cccc(NCc3cccc(F)c3)n2)c(Cl)cn1)[C@@H]1CCCNC1 [Example 1, (R)-Piperidine-3-carboxylic acid [5′-chloro-6-(3-fluoro-benzylamino)-[2,4+]bipyridinyl-2′-yl]-amide] | < 8 nM |
| O=C(Nc1cc(-c2cccc(NCc3cccc(F)c3)n2)c(Cl)cn1)C1CCCCC1 [Example 2, Cyclohexanecarboxylic acid [5′-chloro-6-(3-fluoro-benzylamino)-[2,4′]bipyridinyl-2′-yl]-amide] | 134 nM |
| O=C(Nc1cc(-c2cccc(NCC3CCOCC3)n2)c(Cl)cn1)[C@@H]1CCCNC1 [Example 3, (R)-Piperidine-3-carboxylic acid {5′-chloro-6-[(tetrahydro-pyran-4-ylmethyl)-amino]-[2,4′]bipyridinyl-2′-yl}-amide] | 1 nM |
| O=C(Nc1cc(-c2cccc(NCc3cccc(F)c3)n2)c(Cl)cn1)[C@H]1CCCNC1 [Example 4, (S)-Piperidine-3-carboxylic acid [5′-chloro-6-(3-fluoro-benzylamino)-[2,4′]bipyridinyl-2′-yl]-amide] | 17 nM |
